Data: ChEMBL document CHEMBL1201862, “PubChem BioAssay data set” (2004)
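Cells were grown in 96-well plates and exposed to each compound for 48 hours at five concentrations; endpoints were interpolated linearly between bracketing concentrations, or set to the highest concentration if not reached. GI50 = concentration required for 50% inhibition of growth.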 Calls of active or inactive are those of the source. Rule as the data show it: active = GI50 up to about 1.1 µM and inactive = higher.

How the values were obtained:
Assay in all cases: inhibition of tumour cell growth, NCI panel, 48 h
[1] = test system: KM-20L2
[2] = test system: SW-620
[3] = test system: NCI-H226
[4] = test system: SNB-19
[5] = test system: DMS-114
[6] = test system: HL-60
[7] = test system: TK-10
[8] = test system: IGROV-1
[9] = test system: ACHN
[10] = test system: OVCAR-3
[11] = test system: KM12
[12] = test system: UACC-62
[13] = test system: HCT-15
[14] = test system: OVCAR-5
[15] = test system: COLO 205
[16] = test system: HOP-62
[17] = test system: HOP-92
[18] = test system: HOP-18
[19] = test system: MOLT-4
[20] = test system: PC-3

Measured: GI50

C=CC/N=C1/N=C(CC(=O)OCC)CS1
inactive: [1] > 100 µM | [2] > 100 µM | [3] > 100 µM | [4] > 100 µM | [5] > 100 µM | [6] > 100 µM | [7] > 100 µM | [8] > 100 µM | [9] > 100 µM | [10] > 100 µM | [11] > 100 µM | [12] > 100 µM | [14] > 100 µM | [15] > 100 µM | [16] > 100 µM | [17] > 100 µM | [18] > 100 µM
> 100 µM: [13]

BrC(Br)=C1C(=C(Br)Br)C(Br)C1Br (centres undefined)
0.301 µM: [13]
active: [2] 0.207 µM | [3] 0.275 µM | [19] 0.121 µM | [5] 0.256 µM | [6] < 0.0125 µM | [7] 0.682 µM | [8] 0.628 µM | [9] 0.152 µM | [10] 0.794 µM | [11] 0.61 µM | [12] 0.429 µM | [15] 0.849 µM | [16] 1.02 µM
inactive: [1] 1.38 µM | [4] 1.95 µM | [20] 1.62 µM | [14] 1.69 µM | [17] 1.34 µM | [18] 2.91 µM

CN(C)CCNC(=O)c1ccc2ccc3cccnc3c2n1
inactive: [1] 9.57 µM | [2] 5.98 µM | [3] 14.3 µM | [4] 19.6 µM | [19] 3.44 µM | [5] 12.1 µM | [6] 26.4 µM | [7] 9.35 µM | [8] 25.7 µM | [9] 7.45 µM | [10] 24.7 µM | [11] 18.2 µM | [12] 16.6 µM | [14] 14.6 µM | [15] 8.24 µM | [16] 19.2 µM | [17] 16.4 µM | [18] 26.2 µM
11.8 µM: [13]

Cc1cc(N(CCC#N)CCC#N)ccc1/C=C1N=C(/C=C\c2ccccc2)N(c2ccc(C(=O)O)cc2)C\1=O
inactive: [1] > 100 µM | [2] > 100 µM | [3] > 100 µM | [4] > 100 µM | [19] > 100 µM | [5] > 100 µM | [6] > 100 µM | [7] > 100 µM | [8] > 100 µM | [9] > 100 µM | [10] > 100 µM | [11] > 100 µM | [12] > 100 µM | [14] > 100 µM | [15] > 100 µM | [16] > 100 µM | [17] > 100 µM | [18] > 100 µM
> 100 µM: [13]

O=S(=O)(Cc1ccccc1)SCc1ccccc1
18.4 µM: [13]
inactive: [1] 21.6 µM | [2] 4.37 µM | [3] 24.5 µM | [4] 33.6 µM | [19] 3.09 µM | [5] 17.5 µM | [6] 5.07 µM | [7] > 48.1 µM | [8] 31.6 µM | [9] 39.6 µM | [10] 23.4 µM | [11] 32.4 µM | [12] 23.3 µM | [14] > 74 µM | [15] 19.5 µM | [16] 44.6 µM | [17] 18.5 µM | [18] 18.9 µM

COP(=O)(CC(=O)C1OC(C)(C)OC1C(O)COCc1ccccc1)OC (centres undefined)
> 100 µM: [13]
inactive: [1] > 100 µM | [2] > 100 µM | [3] > 100 µM | [19] > 100 µM | [5] > 100 µM | [6] > 100 µM | [7] > 100 µM | [8] > 100 µM | [9] > 100 µM | [10] > 100 µM | [11] > 100 µM | [12] > 100 µM | [14] > 100 µM | [15] > 100 µM | [16] > 100 µM | [17] > 100 µM | [18] > 100 µM

Cc1ccc(NC(=O)C(=O)Cc2cc[n+]([O-])cc2)cc1
inactive: [1] > 100 µM | [2] > 100 µM | [3] > 100 µM | [4] > 100 µM | [19] > 100 µM | [5] > 100 µM | [6] > 100 µM | [7] > 100 µM | [8] > 100 µM | [9] > 100 µM | [10] > 100 µM | [11] > 100 µM | [12] > 100 µM | [14] > 100 µM | [15] > 100 µM | [16] > 100 µM | [17] > 100 µM | [18] > 100 µM
> 100 µM: [13]

COC1OC(CO)C(O)C1N (centres undefined)
inactive: [1] > 100 µM | [2] > 100 µM | [3] > 100 µM | [4] > 100 µM | [19] > 100 µM | [5] > 100 µM | [6] > 100 µM | [7] > 100 µM | [8] > 100 µM | [9] > 100 µM | [10] > 100 µM | [11] > 100 µM | [12] > 100 µM | [14] > 100 µM | [15] > 100 µM | [16] > 100 µM | [17] > 100 µM | [18] > 100 µM
> 100 µM: [13]

Cc1ccc(S(=O)OCc2c(C)c(C)c(COS(=O)c3ccc(C)cc3)c(C)c2C)cc1 (centres undefined)
> 100 µM: [13]
inactive: [1] > 100 µM | [2] > 100 µM | [3] > 100 µM | [4] > 100 µM | [19] > 100 µM | [5] > 100 µM | [6] > 100 µM | [7] > 100 µM | [8] > 100 µM | [9] > 100 µM | [10] > 100 µM | [11] > 100 µM | [12] > 100 µM | [14] > 100 µM | [15] > 100 µM | [16] > 100 µM | [17] > 100 µM | [18] > 100 µM

Cc1ccc2c(CC(=O)O)cc(=O)oc2c1
> 100 µM: [13]
inactive: [1] > 100 µM | [2] > 100 µM | [3] > 100 µM | [4] > 100 µM | [19] > 100 µM | [5] > 100 µM | [6] > 100 µM | [7] > 100 µM | [8] > 100 µM | [9] > 100 µM | [10] > 100 µM | [11] > 100 µM | [12] > 100 µM | [14] > 100 µM | [15] > 100 µM | [16] > 100 µM | [17] > 100 µM | [18] > 100 µM
